Source: ChEMBL document CHEMBL2021885, “Triphenylbutanamines: kinesin spindle protein inhibitors with in vivo antitumor activity” (J Med Chem, 2012)

Key:
K562 = experiment: cells; conditions: Homo sapiens, K562, 72 h
Description: Antiproliferative activity against human K562 cells after 72 hrs by Alamar blue assay

[1] = molecular target: T1, Kinesin-like protein KIF11 (Homo sapiens, UniProt P52732)
T1 sequence (P52732 whole entry): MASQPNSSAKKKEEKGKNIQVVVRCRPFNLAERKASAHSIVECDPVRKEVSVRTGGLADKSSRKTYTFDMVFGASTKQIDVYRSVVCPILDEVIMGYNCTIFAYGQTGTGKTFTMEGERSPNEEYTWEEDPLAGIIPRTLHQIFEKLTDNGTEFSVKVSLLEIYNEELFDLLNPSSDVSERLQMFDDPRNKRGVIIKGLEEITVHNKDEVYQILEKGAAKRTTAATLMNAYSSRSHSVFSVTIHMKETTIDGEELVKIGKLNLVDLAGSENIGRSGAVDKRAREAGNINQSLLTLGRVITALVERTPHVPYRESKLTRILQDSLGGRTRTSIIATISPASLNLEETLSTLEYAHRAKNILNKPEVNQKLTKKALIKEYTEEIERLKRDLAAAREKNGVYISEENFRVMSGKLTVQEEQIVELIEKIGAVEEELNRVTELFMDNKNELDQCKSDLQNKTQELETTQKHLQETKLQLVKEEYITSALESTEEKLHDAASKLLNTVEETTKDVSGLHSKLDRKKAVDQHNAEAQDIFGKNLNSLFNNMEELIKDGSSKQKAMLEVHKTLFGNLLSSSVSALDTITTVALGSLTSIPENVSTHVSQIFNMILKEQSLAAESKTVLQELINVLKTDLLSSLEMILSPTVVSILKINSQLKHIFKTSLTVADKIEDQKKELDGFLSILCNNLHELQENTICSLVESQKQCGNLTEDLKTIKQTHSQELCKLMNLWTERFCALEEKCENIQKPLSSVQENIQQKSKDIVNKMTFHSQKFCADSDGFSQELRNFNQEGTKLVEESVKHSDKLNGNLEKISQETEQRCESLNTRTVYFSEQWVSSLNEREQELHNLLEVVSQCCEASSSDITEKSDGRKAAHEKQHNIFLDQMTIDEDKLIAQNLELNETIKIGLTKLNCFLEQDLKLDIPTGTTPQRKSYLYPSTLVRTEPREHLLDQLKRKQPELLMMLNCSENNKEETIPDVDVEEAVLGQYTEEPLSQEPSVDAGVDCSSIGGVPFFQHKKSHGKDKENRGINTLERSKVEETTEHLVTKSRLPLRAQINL

[2] = Apparent permeability of the compound by PAMPA method; type: ADME
BXPC-3 = experiment: Antiproliferative activity against human BxPC3 cells after 72 hrs by Alamar blue assay; type: functional; conditions: BXPC-3, 72 h
[3] = Antiproliferative activity against human hTERT-HME1 cells after 72 hrs by Alamar blue assay; type: cell-based
NCI-H1299 = experiment: Antiproliferative activity against human NCI-H1299 cells after 72 hrs by Alamar blue assay; type: functional; conditions: NCI-H1299, 72 h
HCT-116 = experiment: Antiproliferative activity against human HCT116 cells after 72 hrs by Alamar blue assay; type: functional; conditions: HCT-116, 72 h
[4] = molecular target: T1, Kinesin-like protein KIF11; remark: listed apart in the source
Liver microsomes = experiment: Intrinsic clearance in human liver microsomes assessed as per mg of protein; type: ADME, Microsome
Liver = experiment: Intrinsic clearance in mouse liver microsomes assessed as per mg of protein; type: ADME, Microsome
[5] = Intrinsic clearance in human hepatocytes assessed as per million cells; type: ADME, cell-based, Hepatocyte
[6] = Half life at pH 1.0 assessed as compound hydrolysis; type: physicochemical; conditions: buffer

Compound	GI50 (K562)	Ki [1]	GI50 (BXPC-3)	GI50 at 72 h [3]	GI50 (NCI-H1299)	GI50 (HCT-116)	also measured
CNC(=O)c1cccc(C(SCCN)(c2ccccc2)c2ccccc2)c1	982 nM						
N[C@@H](CSC(c1ccccc1)(c1ccccc1)c1cccc(O)c1)C(=O)O	2560 nM	48.8 nM					Papp [2]: impermeable
CN(C)C(=O)c1cccc(C(SCCN)(c2ccccc2)c2ccccc2)c1	2830 nM	6060 nM					
CSc1cccc(C(SCCN)(c2ccccc2)c2ccccc2)c1	1470 nM	520 nM					
CNC(=O)c1ccc(C(SCCN)(c2ccccc2)c2ccccc2)cc1	3950 nM						
NCCCC(c1ccccc1)(c1ccccc1)c1ccccc1			1220 nM	572 nM	964 nM	213 nM	
CS(=O)(=O)c1cccc(C(SCCN)(c2ccccc2)c2ccccc2)c1	2560 nM						
NCCSC(c1ccccc1)(c1ccccc1)c1ccccc1	2290 nM	246 nM	2460 nM	1610 nM	2300 nM	1210 nM	Ki [4]: 152 nM
CC(=O)c1ccc(C(SC[C@H](N)C(=O)O)(c2ccccc2)c2ccccc2)cc1	4270 nM	272 nM					
CC(=O)c1ccc(C(SCCN)(c2ccccc2)c2ccccc2)cc1	705 nM						
Cc1cccc(C(CC[C@@H](N)C(=O)O)(c2ccccc2)c2ccccc2)c1			75 nM	26 nM	132 nM	51 nM	CLH (Liver microsomes): Stable; CLH (Liver): Stable; CLH [5]: Stable
NCCSC(c1ccccc1)(c1ccccc1)c1ccc(CN)cc1	2590 nM						
Cc1cccc(C(CC[C@H](N)C(=O)O)(c2ccccc2)c2ccccc2)c1			180 nM	42 nM	281 nM	95 nM	CLH (Liver microsomes): Stable; CLH (Liver): Stable; CLH [5]: Stable
NCCCC(c1ccccc1)(c1ccccc1)c1cccc(Cl)c1	596 nM						
Cc1ccc(C(CC[C@@H](N)C(=O)O)(c2ccccc2)c2ccccc2)cc1	82 nM		85 nM	27 nM	111 nM	40 nM	
NCCCC(c1ccccc1)(c1ccccc1)c1ccc(Cl)cc1	337 nM		2310 nM	308 nM	828 nM	230 nM	
N#Cc1ccc(C(SCCN)(c2ccccc2)c2ccccc2)cc1	2180 nM	432 nM					
N[C@H](CCC(c1ccccc1)(c1ccccc1)c1ccccc1)C(=O)O	776 nM		1120 nM	321 nM	1320 nM	472 nM	
NCCSC(c1ccccc1)(c1ccccc1)c1cccc(CN)c1	2020 nM						
COc1cccc(C(SCCN)(c2ccccc2)c2ccccc2)c1		150 nM					
Cc1ccc(C(CCCN)(c2ccccc2)c2ccccc2)cc1			1600 nM	601 nM	376 nM	154 nM	
NCCSC(c1ccccc1)(c1ccccc1)c1cccc(Cl)c1	1040 nM	298 nM					
NCCNC(c1ccccc1)(c1ccccc1)c1ccccc1		2660 nM					t1/2 [6]: 7 h
Cc1ccc(C(SC[C@H](N)C(=O)O)(c2ccccc2)c2ccccc2)cc1	242 nM		284 nM	57 nM	242 nM	130 nM	Ki [4]: 13.6 nM
COc1ccc(C(SC[C@H](N)C(=O)O)(c2ccccc2)c2ccccc2)cc1				81 nM			
N[C@@H](CSC(c1ccccc1)(c1ccccc1)c1ccc2ccccc2c1)C(=O)O	247 nM		245 nM	119 nM	227 nM	153 nM	Ki [4]: 4.2 nM
CC(=O)c1cccc(C(SC[C@H](N)C(=O)O)(c2ccccc2)c2ccccc2)c1	964 nM						
